# Patent publication US20070258912A1, “Use of Fluorescent Whitening Agents as Antimicrobials” (priority 2004, published 2007)
# Legend:
# Type in all cases: cell-based
# Corynebacterium xerosis [1] = experiment: MIC in the agar incorporation test; settings: ATCC373, agar incorporation, Mueller Hinton agar, 24 hours at 37° C., ATCC 373, read-out: MIC Corynebacterium xerosis
# Method: (§1) Determination of Minimum Inhibitory Concentration (MIC Values) in the Agar Incorporation Test
# (§2) 1% stock solutions of the substances are prepared in an appropriate solvent and diluted in serial dilutions 1:2 (to yield end concentrations in the agar of 500-1.9 ppm). 0.3 ml of each dilution step is mixed with 15 ml of nutrient medium while the latter is still liquid. After the nutrient medium has solidified, 10 μl of each test strain in 0.85% NaCl solution are spotted onto the agar medium.
# (§3) The plates are incubated at 37° C. for 24 hours and then the highest dilution (lowest concentration) of the test substance at which growth is no longer observable is determined.
# (§4) Test Organisms: Staphylococcus aureus ATCC 6583 Staphylococcus epidermidis ATCC 12228 Corynebacterium xerosis ATCC 373 Propionibacterium acnes ATCC Escherichia coli ATCC 10536 Salmonella choleraesuis ATCC Klebsiella pneumoniae ATCC *Candida albicans ATCC 10231
# (§5) *Aspergillus niger ATCC 6275
# Escherichia coli [2] = experiment: MIC in the agar incorporation test; settings: ATCC10536, agar incorporation, Mueller Hinton agar, 24 hours at 37° C., ATCC 10536, read-out: MIC Escherichia coli
# Method: as §1, §2, §3, §4, §5
# Klebsiella pneumoniae = experiment: MIC in the agar incorporation test; settings: Mueller Hinton agar, 24 hours at 37° C.
# Method: as §1, §2, §3, §4, §5
# Propionibacterium acnes = experiment: MIC in the agar incorporation test; settings: Cutibacterium acnes; agar incorporation, Mueller Hinton agar, 24 hours at 37° C.; read-out: MIC Propionibacterium acnes
# Method: as §1, §2, §3, §4, §5
# Salmonella choleraesuis = experiment: MIC in the agar incorporation test; settings: Salmonella enterica, Mueller Hinton agar, 24 hours at 37° C.
# Method: as §1, §2, §3, §4, §5
# Staphylococcus aureus [3] = experiment: MIC in the agar incorporation test; settings: ATCC6583, agar incorporation, Mueller Hinton agar, 24 hours at 37° C., ATCC 6583, read-out: MIC Staphylococcus aureus
# Method: as §1, §2, §3, §4, §5
# Staphylococcus epidermis = experiment: MIC in the agar incorporation test; settings: ATCC12228, agar incorporation, Mueller Hinton agar, 24 hours at 37° C., ATCC 12228, read-out: MIC Staphylococcus epidermis
# Method: as §1, §2, §3, §4, §5
# [4] = tested on: Corynebacterium minutissimum; experiment: MIC in the agar incorporation test; settings: agar incorporation, Mueller Hinton agar, 24 hours at 37° C., read-out: MIC Corynebacterium minutissimum
# Actinomyces viscosus [5] = experiment: MIC against oral microorganisms via broth dilution; settings: ATCC43146, broth dilution 0.94-15 ppm, 7-10 days at 37° C. anaerobically, ATCC 43146, read-out: MIC Actinomyces viscosus
# Method: (§6) Determination of the Minimum Inhibition Concentration (MIC Value) Against Different Oral Microorganisms Via Broth Dilution
# (§7) 1500 ppm stock solutions of the substances are prepared in ethanol and pipetted into the growth medium to yield concentrations between 0.94 and 15 ppm. Bacteria are taken from blood agar plates with cotton swabs and adjusted in the appropriate growth medium to yield an optical density corresponding to McFarland 0.5. This suspension is directly used in the case of F. nucleatum and P. nigrescens. For the other strains, the suspension is diluted 1:20. 0.1 ml of these bacterial suspensions are added to 2 ml of the substance solutions. After the incubation time, the tubes are assessed for growth (turbidity).
# (§8) Test Organisms: *Actinobacillus actinomycetemcomitans ATCC 43718 *Stretococcus gordonii ATCC 10558 *Streptococcus mutans ATCC 33402 Actinomyces viscosus ATCC 43146 Fusobacterium nucleatum subsp. polymorphum ATCC 10953 Porphyromonas gingivalis ATCC 33277
# (§9) Prevotella nigrescens ATCC 33563
# [6] = tested on: Fusobacterium nucleatum subsp. polymorphum; experiment: MIC against oral microorganisms via broth dilution; settings: ATCC10953, broth dilution 0.94-15 ppm, 7-10 days at 37° C. anaerobically, ATCC 10953, read-out: MIC Fusobacterium nucleatum subsp. polymorphum
# Method: as §6, §7, §8, §9
# Porphyromnas gingivalis = experiment: MIC against oral microorganisms via broth dilution; settings: broth dilution 0.94-15 ppm, Columbia bouillon, 7-10 days at 37° C. anaerobically, ATCC 33277; read-out: MIC Porphyromnas gingivalis
# Method: as §6, §7, §8, §9
# Prevotella nigrescens = experiment: MIC against oral microorganisms via broth dilution; settings: ATCC33563, broth dilution 0.94-15 ppm, Columbia bouillon, 7-10 days at 37° C. anaerobically, ATCC 33563, read-out: MIC Prevotella nigrescens
# Method: as §6, §7, §8, §9
# Streptococcus gordonii = experiment: MIC against oral microorganisms via broth dilution; settings: ATCC10558, broth dilution 0.94-15 ppm, 24 h aerobically with 10% CO2, ATCC 10558, read-out: MIC Streptococcus gordonii
# Method: as §6, §7, §8, §9
# Streptococcus mutans = experiment: MIC against oral microorganisms via broth dilution; settings: ATCC33402, broth dilution 0.94-15 ppm, 24 h aerobically with 10% CO2, ATCC 33402, read-out: MIC Streptococcus mutans
# Method: as §6, §7, §8, §9
# Actinomyces viscosus [7] = experiment: Microbicidal activity (suspension test, plate count); settings: ATCC 43146
# Method: (§10) Determination of Microbicidal Activity
# (§11) 1 g stock solution with an appropriate concentration of test products are mixed with 8 g water and then inoculated with 1 ml of the selected test organisms. After a given contact period, aliquots are taken, inactivated and diluted. The number of surviving bacteria per ml incubation assay is determined by plate count. Proper inactivation by the inactivating medium used was checked each time.
# (§12) Diluent: tryptone water for microorganisms
# (§13) • (0.1% tryptone (Oxoid), 0.85% NaCl, deion. water) • deion. water for test substances • inactivating medium for detection of surviving microorganisms Growth medium: casein soybean peptone agar Inactivating Medium: tryptic soy broth special • (10% w/w Tween 80, 3% w/w Lecithine, 0.1% w/w L-Histidine, • 0.055% w/w Sodium thiosulfate) Test organisms: Staphylococcus aureus ATCC 6538 • Escherichia coli ATCC 10536 • Actinomyces viscosus ATCC 43146 • Corynebacterium xerosis ATCC 373 Test concentration: 120 ppm and 1200 ppm Contact times: 5 and 30 minutes at 22° C.
# (§14) Incubation time: 24 h at 37° C.
# Corynebacterium xerosis [8] = experiment: as above; settings: ATCC 373
# Method: as §10, §11, §12, §13, §14
# Escherichia coli [9] = experiment: as above; settings: ATCC 10536
# Method: as §10, §11, §12, §13, §14
# Staphylococcus aureus [10] = experiment: as above; settings: ATCC 6538
# Method: as §10, §11, §12, §13, §14
# [11] = tested on: Actinobacillus actinomycetemcomitans; experiment: MIC against oral microorganisms via broth dilution; settings: Aggregatibacter actinomycetemcomitans, ATCC43718; broth dilution 0.94-15 ppm, 24 h aerobically with 10% CO2, ATCC 43718
# Method: as §6, §7, §8, §9
# [12] = 1200 ppm, 5 min contact at 22° C.
# [13] = 1200 ppm, 30 min contact at 22° C.
Structure (SMILES),MIC (Corynebacterium xerosis [1]) [µg/mL],MIC (Escherichia coli [2]) [µg/mL],MIC (Klebsiella pneumoniae) [µg/mL],MIC (Propionibacterium acnes) [µg/mL],MIC (Salmonella choleraesuis) [µg/mL],MIC (Staphylococcus aureus [3]) [µg/mL],MIC (Staphylococcus epidermis) [µg/mL],MIC [4] [µg/mL],MIC (Actinomyces viscosus [5]) [µg/mL],MIC [6] [µg/mL],MIC (Porphyromnas gingivalis) [µg/mL],MIC (Prevotella nigrescens) [µg/mL],MIC (Streptococcus gordonii) [µg/mL],MIC (Streptococcus mutans) [µg/mL],Microbicidal activity Actinomyces viscosus 120 ppm/5 min (Actinomyces viscosus [7]; 5 min contact at 22° C.) [log reductions],Microbicidal activity Actinomyces viscosus 120 ppm/30 min (Actinomyces viscosus [7]; 30 min contact at 22° C.) [log reductions],Microbicidal activity Corynebacterium xerosis 120 ppm/5 min (Corynebacterium xerosis [8]; 5 min contact at 22° C.) [log reductions],Microbicidal activity Corynebacterium xerosis 120 ppm/30 min (Corynebacterium xerosis [8]; 30 min contact at 22° C.) [log reductions],Microbicidal activity Escherichia coli 120 ppm/5 min (Escherichia coli [9]; 5 min contact at 22° C.) [log reduction],Microbicidal activity Escherichia coli 120 ppm/30 min (Escherichia coli [9]; 30 min contact at 22° C.) [log reduction],other results
CN(C)CCSc1ccccc1/C=C/c1ccc(/C=C/c2ccccc2SCCN(C)C)cc1 [formula 23],7.8,125,31.3,3.9,125,7.8,15.6,3.9,3.75,7.5,3.75,7.5,7.5,7.5,2,4,5,5,3.3,5,Microbicidal activity Staphylococcus aureus 120 ppm/5 min (Staphylococcus aureus [10]; 5 min contact at 22° C.): 2 log reduction; Microbicidal activity Staphylococcus aureus 120 ppm/30 min (Staphylococcus aureus [10]; 30 min contact at 22° C.): 4 log reduction
CCN(CC)CCOc1cccc(/C=C/c2ccc(/C=C/c3cccc(OCCN(CC)CC)c3OCCN(CC)CC)cc2)c1OCCN(CC)CC [formula 25],15.6,125,,62.5,125,62.5,62.5,15.6,15,,,15,,,2.9,2.1,5,5,5,5,Microbicidal activity Actinomyces viscosus 1200 ppm/5 min (Actinomyces viscosus [7]; [12]): 4 log reductions; Microbicidal activity Actinomyces viscosus 1200 ppm/30 min (Actinomyces viscosus [7]; [13]): 4 log reductions; Microbicidal activity Corynebacterium xerosis 1200 ppm/5 min (Corynebacterium xerosis [8]; [12]): 5 log reductions; Microbicidal activity Corynebacterium xerosis 1200 ppm/30 min (Corynebacterium xerosis [8]; [13]): 5 log reductions; Microbicidal activity Escherichia coli 1200 ppm/5 min (Escherichia coli [9]; [12]): 5 log reduction; Microbicidal activity Escherichia coli 1200 ppm/30 min (Escherichia coli [9]; [13]): 5 log reduction; Microbicidal activity Staphylococcus aureus 120 ppm/5 min (Staphylococcus aureus [10]; 5 min contact at 22° C.): 1 log reduction; Microbicidal activity Staphylococcus aureus 120 ppm/30 min (Staphylococcus aureus [10]; 30 min contact at 22° C.): 1 log reduction; Microbicidal activity Staphylococcus aureus 1200 ppm/5 min (Staphylococcus aureus [10]; [12]): 2.9 log reduction; Microbicidal activity Staphylococcus aureus 1200 ppm/30 min (Staphylococcus aureus [10]; [13]): 2.8 log reduction
CN(C)CCCOc1ccccc1/C=C/c1ccc(/C=C/c2ccccc2OCCCN(C)C)cc1 [formula 26],3.1,200,25,12.5,200,6.3,6.3,6.3,3.8,3.8,3.8,1.9,7.5,3.8,0,3.7,2.9,5,4.5,5,MIC [11]: 15 µg/mL; Microbicidal activity Staphylococcus aureus 120 ppm/5 min (Staphylococcus aureus [10]; 5 min contact at 22° C.): 0 log reduction; Microbicidal activity Staphylococcus aureus 120 ppm/30 min (Staphylococcus aureus [10]; 30 min contact at 22° C.): 4 log reduction
Cc1ccc(/C=C/c2ccc(/C=C/c3cccc(OCCCN(C)C)c3)cc2)c(OCCN(C)C)c1 [formula 29],3.1,200,25,3.1,200,3.1,3.1,6.3,3.8,3.8,1.9,1.9,7.5,3.8,2.5,5,5,5,5,5,MIC [11]: 7.5 µg/mL; Microbicidal activity Staphylococcus aureus 120 ppm/5 min (Staphylococcus aureus [10]; 5 min contact at 22° C.): 3 log reduction; Microbicidal activity Staphylococcus aureus 120 ppm/30 min (Staphylococcus aureus [10]; 30 min contact at 22° C.): 5 log reduction
Cc1ccc(/C=C/c2ccc(/C=C/c3ccc(C)c(OCCCN(C)C)c3)cc2)cc1OCCCN(C)C [formula 30],3.1,,25,6.3,200,12.5,12.5,3.1,3.8,3.8,3.8,3.8,15,7.5,,,,,,,MIC [11]: 15 µg/mL
